Entries after “also recorded” stand apart in the source; their conditions may differ.
Biological target: immobilized enzyme CAL-A and free enzyme CAL-A (Moesziomyces aphidis, UniProt W3VKA4)
Experiment: Influence of organic solvents, metal ions and surfactants on enzyme activity
Format: biochemical, Candida antarctica
Settings: for effect of organic solvent on hydrolysis activity: 10% (v/v) and 20% (v/v) solvent
Source text: Add 10 mmol/L, 5 mmol/L, l0 mmol/L K+, Al^3+, Fe^2+, Fe3+, Ca^2+, Mg^2+, Mn^2+, Zn^2+, Ba^2+, Na^2+ and other 10 kinds of metal ion solutions to measure the enzyme activity respectively, take the activity of the untreated immobilized enzyme CAL-A and free enzyme CAL-A enzyme as 100%, analyze the influence of metal ions on the enzyme activity. (FIG. 4-G, FIG. 4-H, FIG. 4-I).
Add 10% (v/v) and 20% (v/v) methanol, ethanol, acetonitrile, acetone, n-butanol, isooctane, isopropanol, n-hexane, n-heptane, petroleum ether, tert-butyl Alcohol, glacial acetic acid, ethyl acetate and other 13 kinds of organic solvent solutions respectively, measure the enzyme activity. Take the untreated immobilized enzyme CAL-A and free enzyme CAL-A enzyme activity as 100%, analyze the influence of organic solvent on the enzyme activity.
Add 0.0001%, 0.0005%, 0.001% SDS, TritionX-100, Tween-80, Tween-20, EDTA and other 5 kinds of surfactant solutions respectively, measure the enzyme activity, take the untreated immobilized enzyme CAL-A and free enzyme CAL-A enzyme activity as 100%, analyze the influence of surfactant on enzyme activity.

immobilized enzyme CAL-A and free enzyme CAL-A, sequence (W3VKA4 22-462): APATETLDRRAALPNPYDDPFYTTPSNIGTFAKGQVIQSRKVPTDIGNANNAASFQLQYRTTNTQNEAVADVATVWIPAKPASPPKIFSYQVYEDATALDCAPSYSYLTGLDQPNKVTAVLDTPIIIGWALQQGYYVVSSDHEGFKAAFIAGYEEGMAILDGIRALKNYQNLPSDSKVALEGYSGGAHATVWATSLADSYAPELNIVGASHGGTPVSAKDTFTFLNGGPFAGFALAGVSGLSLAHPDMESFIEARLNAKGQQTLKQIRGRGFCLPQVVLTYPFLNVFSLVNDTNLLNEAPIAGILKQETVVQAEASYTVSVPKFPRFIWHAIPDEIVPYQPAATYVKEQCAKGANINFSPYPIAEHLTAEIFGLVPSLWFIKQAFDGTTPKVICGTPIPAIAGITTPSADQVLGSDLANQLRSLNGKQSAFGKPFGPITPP

Molecule | effect of organic solvent on hydrolysis activity (untreated enzyme = 100%) | other results
O=C(O)CN(CCN(CC(=O)O)CC(=O)O)CC(=O)O [EDTA] | – | effect of surfactant on lipase activity (0.0005% EDTA): activating effect; also recorded: activate; effect of surfactant on lipase activity (0.001% EDTA): inhibitory effect; also recorded: inhibit
O=S(=O)([O-])[O-].[Fe+2] [Fe^2+] | – | effect of metal ion on hydrolysis of immobilized enzymes (metal ion solutions 1, 5, 10 mmol/L, untreated enzyme = 100%): activate
CC(=O)O [acetic acid] | significantly inhibit; also recorded: obvious inhibitory effects | –
CCO [ethanol] | significantly inhibit; also recorded: obvious inhibitory effects | –
CCOC(C)=O [ethyl acetate] | activate; also recorded: activation effects | –
CCCCCC [n-hexane] | significantly inhibit; also recorded: obvious inhibitory effects | –
CC(C)(C)O [tert-butanol] | activate; also recorded: activation effects | –
n-butanol | activate; also recorded: activation effects | –

— patent US20230183758A1, “METHOD FOR PREPARING DIACYLGLYCEROL BY IMMOBILIZED SN-2 LIPASE” (Shandong Academy of Agricultural Sciences, priority 2021, published 2023)
